Experimental data as given in patent US20240400983A1, “CELL AGGREGATE INCLUDING PITUITARY HORMONE-PRODUCING CELLS AND METHOD FOR PRODUCING SAME” (Sumitomo Pharma Co., Ltd., priority 2021, published 2024).
No end group written: not given here.

Legend:
[1] = tested on: cell aggregates from human iPS cells; assay: Comparison of SAG treatment period on ACTH secretion capacity of cell aggregates from human iPS cells; format: cell-based; conditions: SAG until day 30 versus continued after day 30 (days 61, 103, 131)
Method: Cell aggregates containing hypothalamic cells, pituitary progenitor cells, and pituitary hormone-producing cells were produced using the same differentiation induction method as in Example 1 (method without cell sorting using anti-EpCAM antibody). Regarding the SAG treatment period, two groups of a group in which SAG is added from immediately after the start of differentiation induction until day 30 (see FIG. 2), and a group so in which SAG is added from immediately after the start of differentiation induction and after day 30 (until days 61, 103, and 131) were set, and the ACTH secretion capacity was compared.

[2] = tested on: cell aggregates containing pituitary hormone-producing cells (reaggregated EpCAM-positive cells from human ES cells); assay: ACTH stimulation test using CRH or dexamethasone on reaggregated EpCAM-positive cell aggregates (ACTH ELISA of culture supernatant); format: cell-based; conditions: 24 hr
Method: An ACTH stimulation test using CRH (manufactured by NIPRO ES PHARMA CO., LTD.) was performed using cell aggregates obtained by purifying and reaggregating cell aggregates on day 62 after the start of differentiation induction and suspension culturing for 41 days. Twenty cell aggregates were transferred to a 10 cm suspension culture dish containing a serum-free medium (10 mL) supplemented with 20% KSR, cultured for 24 hr under condition of 37° C., 40% 02, and the culture supernatant was recovered. The cell aggregates were washed with a serum-free medium supplemented with 20% KSR, transferred to a new 10 cm suspension culture dish containing a serum-free medium (10 mL) supplemented with 20% KSR, and CRH 5 μg/mL was added. After culturing for 24 hr under condition of 37° C., 40% O2, the culture supernatant was recovered. The ACTH concentration in the collected culture supernatant was measured by the ELISA method used in clinical testing (testing outsourced to SRL, Inc.).
In addition, the response of EpCAM-positive cell reaggregates to hormones was also examined. On day 60 after the start of differentiation induction, cell sorting was performed using an anti-EpCAM antibody, and then EpCAM-positive cells were reaggregated and cultured until day 103 after the start of differentiation induction. Thereafter, an ACTH stimulation test using CRH (manufactured by NIPRO ES PHARMA CO., LTD.) or dexamethasone (DX, manufactured by Aspen Japan K.K.) was conducted. Specifically, 20 cell aggregates were transferred to a 10 cm suspension culture dish containing 10 mL of serum-free medium supplemented with 20% KSR, and after culturing for 24 hr under conditions of 37° C., 40% 02, the culture supernatant was recovered. […] The ACTH concentration in the recovered culture supernatant was measured by the ELISA method used in clinical testing (testing outsourced to SRL, Ltd.). […]

hypopituitary mice = assay: Transplantation of EpCAM-positive cell reaggregates under the kidney capsule of hypopituitary mice; blood ACTH with CRH, dexamethasone or LPS stimulation; format: in vivo, mouse; design: dose or concentration left out as unconfirmed; conditions: CRH intraperitoneal; blood 1 hr after; 4, 12, 24 weeks after transplantation
Method: Thereafter, the cells were cultured up to day 107 after the start of differentiation induction and transplanted to under the capsule of the left kidney of hypopituitary mice (10-17 weeks old) whose pituitary was surgically removed (transplantation group). A control group (sham group) was also set in which only the transplantation procedure was performed and no EpCAM-positive cells were transplanted. In addition, hypopituitary mice whose pituitary gland was surgically removed were produced by performing using a transaural approach on SCID mice (7-9 weeks old, male). […] CRH stimulation was applied to the transplantation group and the sham group, and the effect on ACTH secretion capacity was examined. Specifically, mice were administered with CRH (2 pg/kg, intraperitoneal administration) 4, 12, or 24 weeks after transplantation, and blood was collected before CRH administration and 1 hr after CHR administration. Each blood ACTH concentration was measured using ACTH ELISA kit (MD Bioproducts).

[3] = tested on: cell aggregates containing pituitary hormone-producing cells (day 63 sort, DX treated for 14 days); assay: GH stimulation test using GRF and GH suppression test using somatostatin; format: cell-based, human; conditions: day 63 sort + 40 days, DX 14 days; GRF 2 μg/mL, 24 hr
Method: Using cell aggregates obtained by purifying and reaggregating cell aggregates on day 63 after the start of differentiation induction, suspension culturing for 40 days, and treating with DX for 14 days, a GH stimulation test using GRF and a GH suppression test using somatostatin were conducted. Fifteen cell aggregates were transferred to a 6-well culture plate (manufactured by SUMITOMO BAKELITE CO., LTD., for suspension culturing, culture area 9.2 cm^2) containing a serum-free medium (2 mL) supplemented with 20% KSR, cultured for 24 hr under conditions of 37° C., 40% O2, and the culture supernatant was recovered. The cell aggregates were washed with a serum-free medium supplemented with 20% KSR, transferred to a 6-well culture plate containing a new serum-free medium (2 mL) supplemented with 20% KSR, and GRF 2 μg/mL or somatostatin 100 ng/mL was added. After culturing for 24 hr under condition of 37° C., 40% O2, the culture supernatant was recovered. […]

CNC1CCC(N(Cc2cccc(-c3ccncc3)c2)C(=O)c2sc3ccccc3c2Cl)CC1 (stereo not drawn) [SAG, N-Methyl-N′-(3-pyridinylbenzyl)-N′-(3-chlorobenzo[b]thiophene-2-carbonyl)-1,4-diaminocyclohexane]
ACTH secretion capacity depending on SAG treatment period [1]: improved by stopping SAG treatment on day 30

C[C@@H]1C[C@H]2[C@@H]3CCC4=CC(=O)C=C[C@]4(C)[C@@]3(F)[C@@H](O)C[C@]2(C)[C@@]1(O)C(=O)CO [dexamethasone]
decrease of ACTH secretion amount by dexamethasone stimulation ([2]; day 60 sort, cultured to day 103, 500 ng/mL dexamethasone): about 50%

CRH: CRH (manufactured by NIPRO ES PHARMA CO., LTD.) used for the ACTH stimulation test (SEEPPISLDLTFHLLREVLEMARAEQLAQQAHSNRKLMEII; ends and bridges not checked; UniProt P06850 154-194, looked up)
increase of ACTH secretion amount by CRH stimulation ([2]; day 60 sort, cultured to day 103, 5 μg/mL CRH): about 2.2 times
increase of the amount of ACTH secretion by addition of CRH ([2]; day 62 sort + 41 days suspension culture, CRH 5 μg/mL): a little less than two times
blood ACTH concentration after CRH stimulation in transplantation group (hypopituitary mice): further increase

GRF: GRF used for the GH stimulation test (YADAIFTNSYRKVLGQLSARKLLQDIMSRQQGESNQERGARARL; ends and bridges not checked; UniProt P01286 32-75, looked up)
increase of the amount of GH secretion by addition of GRF [3]: a little less than two times
